Structures are written as SMILES. Several values for one entry are separate records, joined by “and”; a condition that tells them apart may be missing. Equal entries are not always repeated. Results filed as inconclusive are left out.

Drawing on PubChem BioAssay AID270 (DTP/NCI, 2004), this text covers T/C for nine compounds.

The subject of this assay is BDF1 mice, s.c. Lewis lung carcinoma, T/C %. In words: NCI In Vivo Anticancer Drug Screen. Data for tumor model Lewis Lung Carcinoma (subcutaneous) in B6D2F1 (BDF1) mice. The method in brief:
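Antitumor effect in vivo is scored from survival or tumor burden, reported as treated relative to vehicle controls.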

Consider `CN(C)C(=S)N=Nc1c(O)[nH]c2ccccc12`, for which the T/C is, setting by setting: (endpoint: mean tumor weight, dose: 6.6 mg/kg/injection, schedule: Q01DX011 (ip), vehicle: carboxymethylcellulose (CMC), higher = larger tumour) 74 % of control; (endpoint: mean tumor weight, dose: 10.0 mg/kg/injection, schedule: Q01DX011 (ip), vehicle: carboxymethylcellulose (CMC), higher = larger tumour) 89 % of control; (endpoint: mean tumor weight, dose: 15.0 mg/kg/injection, schedule: Q01DX011 (ip), vehicle: carboxymethylcellulose (CMC), higher = larger tumour) 47 % of control and 65 % of control; (endpoint: mean tumor weight, dose: 30.0 mg/kg/injection, schedule: Q01DX011 (ip), vehicle: carboxymethylcellulose (CMC), higher = larger tumour) 50 % of control.
As to `O=S(=O)(c1ccc(NC(=S)N/N=C/c2ccccc2O)cc1)N1CCCCC1`, the T/C is, setting by setting: (endpoint: median survival time, dose: 12.5 mg/kg/injection, schedule: Q01DX009 (ip), vehicle: olive oil, sesame oil, peanut oil, higher = longer survival) 98 % of control; (endpoint: median survival time, dose: 25.0 mg/kg/injection, schedule: Q01DX009 (ip), vehicle: olive oil, sesame oil, peanut oil, higher = longer survival) 90 % of control; (endpoint: median survival time, dose: 50.0 mg/kg/injection, schedule: Q01DX009 (ip), vehicle: olive oil, sesame oil, peanut oil, higher = longer survival) 87 % of control; (endpoint: median survival time, dose: 200.0 mg/kg/injection, schedule: Q01DX009 (ip), vehicle: olive oil, sesame oil, peanut oil, higher = longer survival) 91 % of control.
As for `C#C[C@]1(O)CC[C@H]2[C@@H]3CCc4cc(O)ccc4[C@H]3CC[C@@]21C`, the T/C is, setting by setting: (endpoint: median survival time, dose: 1.25 mg/kg/injection, schedule: Q02DX009 (ip), vehicle: Klucel (hydroxypropylcellulose) (HPC), higher = longer survival) 88 % of control; (endpoint: median survival time, dose: 2.5 mg/kg/injection, schedule: Q02DX009 (ip), vehicle: Klucel (hydroxypropylcellulose) (HPC), higher = longer survival) 92 % of control; (endpoint: median survival time, dose: 5.0 mg/kg/injection, schedule: Q02DX009 (ip), vehicle: Klucel (hydroxypropylcellulose) (HPC), higher = longer survival) 96 % of control; (endpoint: median survival time, dose: 10.0 mg/kg/injection, schedule: Q02DX009 (ip), vehicle: Klucel (hydroxypropylcellulose) (HPC), higher = longer survival) 91 % of control and 101 % of control; (endpoint: median survival time, dose: 20.0 mg/kg/injection, schedule: Q02DX009 (ip), vehicle: Klucel (hydroxypropylcellulose) (HPC), higher = longer survival) 104 % of control; (endpoint: median survival time, dose: 40.0 mg/kg/injection, schedule: Q02DX009 (ip), vehicle: Klucel (hydroxypropylcellulose) (HPC), higher = longer survival) 108 % of control and 120 % of control.
For the compound `Cc1cc(C)c(NC(=O)N(CCCl)N=O)cc1C`, the T/C runs as follows: (endpoint: mean tumor weight, dose: 25.0 mg/kg/injection, schedule: Q01DX001 (ip), vehicle: carboxymethylcellulose (CMC), higher = larger tumour) 80 % of control; (endpoint: mean tumor weight, dose: 50.0 mg/kg/injection, schedule: Q01DX001 (ip), vehicle: carboxymethylcellulose (CMC), higher = larger tumour) 82 % of control; (endpoint: median survival time, dose: 12.5 mg/kg/injection, schedule: Q01DX009 (ip), vehicle: other, higher = longer survival) 98 % of control; (endpoint: median survival time, dose: 25.0 mg/kg/injection, schedule: Q01DX009 (ip), vehicle: other, higher = longer survival) 98 % of control; (endpoint: median survival time, dose: 50.0 mg/kg/injection, schedule: Q01DX009 (ip), vehicle: other, higher = longer survival) 87 % of control.
As to `CS(C)=O`, the T/C was 68 % of control (endpoint: mean tumor weight, dose: 250.0 mg/kg/injection, schedule: Q01DX011 (ip), vehicle: carboxymethylcellulose (CMC), higher = larger tumour); 117 % of control (endpoint: mean tumor weight, dose: 500.0 mg/kg/injection, schedule: Q01DX011 (ip), vehicle: carboxymethylcellulose (CMC), higher = larger tumour); 86 % of control (endpoint: mean tumor weight, dose: 1000.0 mg/kg/injection, schedule: Q01DX011 (ip), vehicle: carboxymethylcellulose (CMC), higher = larger tumour); 57 % of control (endpoint: mean tumor weight, dose: 2000.0 mg/kg/injection, schedule: Q01DX011 (ip), vehicle: carboxymethylcellulose (CMC), higher = larger tumour); 101 % of control (endpoint: median survival time, dose: 3.0 grams/kg/injection, schedule: Q01DX009 (ip), vehicle: saline, higher = longer survival); 93 % of control (endpoint: median survival time, dose: 6.0 grams/kg/injection, schedule: Q01DX009 (ip), vehicle: saline, higher = longer survival).
For `N[C@@H](Cc1ccc(N(CCCl)CCCl)cc1)C(=O)O`, the T/C (endpoint: mean tumor weight, dose: 0.5 mg/kg/injection, schedule: Q01DX011 (ip), vehicle: saline, higher = larger tumour) is 76 % of control; the T/C (endpoint: mean tumor weight, dose: 0.8 mg/kg/injection, schedule: Q01DX011 (ip), vehicle: carboxymethylcellulose (CMC), higher = larger tumour) was 71 % of control; the T/C (endpoint: mean tumor weight, dose: 1.0 mg/kg/injection, schedule: Q01DX011 (ip), vehicle: saline, higher = larger tumour) was 46 % of control; the T/C (endpoint: mean tumor weight, dose: 1.6 mg/kg/injection, schedule: Q01DX011 (ip), vehicle: carboxymethylcellulose (CMC), higher = larger tumour) was 70 % of control; the T/C (endpoint: mean tumor weight, dose: 2.0 mg/kg/injection, schedule: Q01DX011 (ip), vehicle: saline, higher = larger tumour) is 46 % of control; the T/C (endpoint: mean tumor weight, dose: 2.4 mg/kg/injection, schedule: Q01DX011 (ip), vehicle: carboxymethylcellulose (CMC), higher = larger tumour) was 68 % of control and 69 % of control. The T/C is 45 % of control (endpoint: mean tumor weight, dose: 3.6 mg/kg/injection, schedule: Q01DX011 (ip), vehicle: carboxymethylcellulose (CMC), higher = larger tumour); 21 % of control (endpoint: mean tumor weight, dose: 4.0 mg/kg/injection, schedule: Q01DX011 (ip), vehicle: saline, higher = larger tumour); 20 % of control (endpoint: mean tumor weight, dose: 5.4 mg/kg/injection, schedule: Q01DX011 (ip), vehicle: carboxymethylcellulose (CMC), higher = larger tumour); 115 % of control (endpoint: median survival time, dose: 0.04 mg/kg/injection, schedule: Q01DX009 (ip), vehicle: saline, higher = longer survival); 103 % of control (endpoint: median survival time, dose: 0.08 mg/kg/injection, schedule: Q01DX009 (ip), vehicle: saline, higher = longer survival); 107 % of control (endpoint: median survival time, dose: 0.31 mg/kg/injection, schedule: Q01DX009 (ip), vehicle: saline, higher = longer survival). Further, the T/C was 101 % of control (endpoint: median survival time, dose: 0.5 mg/kg/injection, schedule: Q01DX009 (ip), vehicle: saline with Tween-80, higher = longer survival); 104 % of control and 122 % of control (endpoint: median survival time, dose: 0.5 mg/kg/injection, schedule: Q01DX009 (ip), vehicle: saline, higher = longer survival); 102 % of control (endpoint: median survival time, dose: 0.75 mg/kg/injection, schedule: Q01DX009 (ip), vehicle: saline, higher = longer survival); 107 % of control (endpoint: median survival time, dose: 1.0 mg/kg/injection, schedule: Q01DX009 (ip), vehicle: Klucel (hydroxypropylcellulose) (HPC), higher = longer survival); 108 % of control (endpoint: median survival time, dose: 1.0 mg/kg/injection, schedule: Q01DX009 (ip), vehicle: saline with Tween-80, higher = longer survival); 107 % of control (endpoint: median survival time, dose: 1.0 mg/kg/injection, schedule: Q01DX009 (ip), vehicle: saline, higher = longer survival). The T/C by setting is: (endpoint: median survival time, dose: 1.5 mg/kg/injection, schedule: Q01DX009 (ip), vehicle: saline, higher = longer survival) 93 % of control; (endpoint: median survival time, dose: 2.0 mg/kg/injection, schedule: Q01DX001 (ip), vehicle: saline, higher = longer survival) 106 % of control; (endpoint: median survival time, dose: 2.0 mg/kg/injection, schedule: Q01DX009 (ip), vehicle: Klucel (hydroxypropylcellulose) (HPC), higher = longer survival) 89 % of control; (endpoint: median survival time, dose: 2.0 mg/kg/injection, schedule: Q01DX009 (ip), vehicle: saline with Tween-80, higher = longer survival) 97 % of control; (endpoint: median survival time, dose: 2.5 mg/kg/injection, schedule: Q01DX001 (ip), vehicle: saline, higher = longer survival) 100 % of control; (endpoint: median survival time, dose: 2.5 mg/kg/injection, schedule: Q01DX001 (ip), vehicle: water, higher = longer survival) 90 % of control. Also, the T/C (endpoint: median survival time, dose: 3.0 mg/kg/injection, schedule: Q01DX009 (ip), vehicle: saline, higher = longer survival) is 116 % of control; the T/C (endpoint: median survival time, dose: 4.0 mg/kg/injection, schedule: Q01DX001 (ip), vehicle: saline, higher = longer survival) is 100 % of control; the T/C (endpoint: median survival time, dose: 4.0 mg/kg/injection, schedule: Q01DX009 (ip), vehicle: Klucel (hydroxypropylcellulose) (HPC), higher = longer survival) was 104 % of control; the T/C (endpoint: median survival time, dose: 4.0 mg/kg/injection, schedule: Q01DX009 (ip), vehicle: saline, higher = longer survival) was 100 % of control and 123 % of control; the T/C (endpoint: median survival time, dose: 4.0 mg/kg/injection, schedule: Q04DX003 (ip), vehicle: saline, higher = longer survival) was 119 % of control; the T/C (endpoint: median survival time, dose: 5.0 mg/kg/injection, schedule: Q01DX001 (ip), vehicle: water, higher = longer survival) was 109 % of control. The T/C (endpoint: median survival time, dose: 8.0 mg/kg/injection, schedule: Q01DX001 (ip), vehicle: saline, higher = longer survival) was 112 % of control; the T/C (endpoint: median survival time, dose: 8.0 mg/kg/injection, schedule: Q01DX009 (ip), vehicle: saline, higher = longer survival) is 86 % of control; the T/C (endpoint: median survival time, dose: 8.0 mg/kg/injection, schedule: Q04DX003 (ip), vehicle: saline, higher = longer survival) was 107 % of control; the T/C (endpoint: median survival time, dose: 10.0 mg/kg/injection, schedule: Q01DX001 (ip), vehicle: saline, higher = longer survival) is 100 % of control; the T/C (endpoint: median survival time, dose: 10.0 mg/kg/injection, schedule: Q01DX001 (ip), vehicle: water, higher = longer survival) was 104 % of control; the T/C (endpoint: median tumor weight (est.), dose: 6.3 mg/kg/injection, schedule: Q01DX001 (ip), vehicle: carboxymethylcellulose (CMC), higher = larger tumour) was 41 % of control. Where the note is “endpoint: median tumor weight (est.), dose: 13.0 mg/kg/injection, schedule: Q01DX001 (ip), vehicle: carboxymethylcellulose (CMC), higher = larger tumour”, the T/C was 39 % of control.
As for `CN(/N=N/c1nc[nH]c1C(N)=O)C(C)(C)C`, the T/C reads like this: (endpoint: median survival time, dose: 200.0 mg/kg/injection, schedule: Q01DX009 (ip), vehicle: Klucel (hydroxypropylcellulose) (HPC), higher = longer survival) 109 % of control; (endpoint: median survival time, dose: 400.0 mg/kg/injection, schedule: Q01DX009 (ip), vehicle: Klucel (hydroxypropylcellulose) (HPC), higher = longer survival) 90 % of control.
With `OC1CC2CCC(C1)N2CCCN1c2ccccc2Sc2ccc(Cl)cc21` (stereo not drawn), the T/C runs as follows: (endpoint: median survival time, dose: 12.5 mg/kg/injection, schedule: Q01DX009 (ip), vehicle: Klucel (hydroxypropylcellulose) (HPC), higher = longer survival) 95 % of control; (endpoint: median survival time, dose: 25.0 mg/kg/injection, schedule: Q01DX009 (ip), vehicle: Klucel (hydroxypropylcellulose) (HPC), higher = longer survival) 96 % of control; (endpoint: median survival time, dose: 50.0 mg/kg/injection, schedule: Q01DX009 (ip), vehicle: Klucel (hydroxypropylcellulose) (HPC), higher = longer survival) 99 % of control.
For `CC(C)=CCCC(C)CCO` (stereo not drawn), the T/C (endpoint: mean tumor weight, dose: 100.0 mg/kg/injection, schedule: Q01DX011 (ip), vehicle: carboxymethylcellulose (CMC), higher = larger tumour) was 72 % of control.
